The results in this text go back to patent publication US9751887B2, “Imidazo[1,2-b]pyridazine derivatives as kinase inhibitors” (Daiichi Sankyo Company, Limited, priority 2012, dated 2017).

Molecules are shown by their SMILES. Where a name gives a salt, the structure may show the parent alone. Some results are limits rather than exact numbers.

Assay [1] has as its system HCC78 cells having ROS1 fusion gene. Briefly: HCC78 cell growth assay (CellTiter-Glo). It is filed as cell-based. Particulars: Homo sapiens, HCC78, 72 h, 72 hours culture, 2% FBS medium, luminescence, four separate measurements; read-out: growth inhibitory effect on HCC78 cells having ROS1 fusion gene IC50. How it is done:
Each compound of the present invention was assayed for its cell growth inhibitory effect using HCC78 cells having ROS1 fusion gene.
The suspension was dispensed at a concentration of 100 μL/well to a 96-well culture plate for cell culture (SUMITOMO BAKELITE, Cat No MS-0096S) (hereinafter, referred to as an assay plate). […] In this context, the final concentration of DMSO was set to 0.4%. Then, the cells were cultured for 72 hours in a CO2 incubator.
CellTiter-Glo Luminescent Cell Viability Assay reagent (Promega, Cat No G7571) was dispensed at a concentration of 100 μL/well to the assay plate. The contents in each well were reacted at room temperature for 10 minutes while stirred using a plate mixer. […] The luminescence intensity of each well was measured using EnVision. The luminescence intensity of each well obtained in four separate measurements was defined as the number of cells. IC50 values were calculated by curve fitting using GraphPad Prism version 4.

For assay [2], the target named is T1, ROS1 (Homo sapiens, UniProt P08922).
T1 construct: purchased Carna Biosciences 08-163
Briefly: ROS1 kinase inhibitory activity evaluation (mobility shift, EZ Reader II). It is filed as biochemical. To be noted: ROS1 25 pg/μL, FL-Peptide 22 substrate, three separate measurements. How it is done: Next, a substrate reaction solution was prepared. […] Then, the reaction stop solution was added thereto at a concentration of 40 μL/well. Substrate phosphorylation intensity was measured using EZ Reader II (Caliper Life Sciences).

In assay [3] the target is T1, ROS1. Briefly: ROS1 autophosphorylation inhibitory activity evaluation (ADP-Glo). It counts as biochemical. Particulars: 200 nM inactive ROS1, ATP 1 mM, 25° C. 1.5 hours, ADP generated, four separate measurements. How it is done:
Fifty mM HEPES (pH 7.5), 10 mM MgCl2, 0.01% Brij-58, and 2.5 mM DTT were mixed to prepare an enzymatic reaction solution. […] ATP (final concentration: 1 mM) was further added thereto at a concentration of 2.5 μL/well. The resulting plate was left standing at 25° C. for 1.5 hours to cause enzymatic reaction. After the completion of enzymatic reaction, ADP-Glo Reagent-1 (Promega, V9103) was added thereto at a concentration of 2.5 μL/well, and the plate was left standing at room temperature for 60 minutes. Then, ADP-Glo Reagent-2 (Promega) was added thereto at a concentration of 5 μL/well, and the plate was left standing at room temperature for 60 minutes. The amount of ADP generated by the autophosphorylation of ROS1 was measured using EnVision (PerkinElmer Japan). The amount of ADP generated in four separate measurements was defined as the autophosphorylation intensity of ROS1. IC50 values were calculated by curve fitting using GraphPad Prism version 4 (GraphPad software).
(ADP-Glo turns the ADP formed in a reaction into a luminescent signal.)

T1 sequence (P08922 28-2347): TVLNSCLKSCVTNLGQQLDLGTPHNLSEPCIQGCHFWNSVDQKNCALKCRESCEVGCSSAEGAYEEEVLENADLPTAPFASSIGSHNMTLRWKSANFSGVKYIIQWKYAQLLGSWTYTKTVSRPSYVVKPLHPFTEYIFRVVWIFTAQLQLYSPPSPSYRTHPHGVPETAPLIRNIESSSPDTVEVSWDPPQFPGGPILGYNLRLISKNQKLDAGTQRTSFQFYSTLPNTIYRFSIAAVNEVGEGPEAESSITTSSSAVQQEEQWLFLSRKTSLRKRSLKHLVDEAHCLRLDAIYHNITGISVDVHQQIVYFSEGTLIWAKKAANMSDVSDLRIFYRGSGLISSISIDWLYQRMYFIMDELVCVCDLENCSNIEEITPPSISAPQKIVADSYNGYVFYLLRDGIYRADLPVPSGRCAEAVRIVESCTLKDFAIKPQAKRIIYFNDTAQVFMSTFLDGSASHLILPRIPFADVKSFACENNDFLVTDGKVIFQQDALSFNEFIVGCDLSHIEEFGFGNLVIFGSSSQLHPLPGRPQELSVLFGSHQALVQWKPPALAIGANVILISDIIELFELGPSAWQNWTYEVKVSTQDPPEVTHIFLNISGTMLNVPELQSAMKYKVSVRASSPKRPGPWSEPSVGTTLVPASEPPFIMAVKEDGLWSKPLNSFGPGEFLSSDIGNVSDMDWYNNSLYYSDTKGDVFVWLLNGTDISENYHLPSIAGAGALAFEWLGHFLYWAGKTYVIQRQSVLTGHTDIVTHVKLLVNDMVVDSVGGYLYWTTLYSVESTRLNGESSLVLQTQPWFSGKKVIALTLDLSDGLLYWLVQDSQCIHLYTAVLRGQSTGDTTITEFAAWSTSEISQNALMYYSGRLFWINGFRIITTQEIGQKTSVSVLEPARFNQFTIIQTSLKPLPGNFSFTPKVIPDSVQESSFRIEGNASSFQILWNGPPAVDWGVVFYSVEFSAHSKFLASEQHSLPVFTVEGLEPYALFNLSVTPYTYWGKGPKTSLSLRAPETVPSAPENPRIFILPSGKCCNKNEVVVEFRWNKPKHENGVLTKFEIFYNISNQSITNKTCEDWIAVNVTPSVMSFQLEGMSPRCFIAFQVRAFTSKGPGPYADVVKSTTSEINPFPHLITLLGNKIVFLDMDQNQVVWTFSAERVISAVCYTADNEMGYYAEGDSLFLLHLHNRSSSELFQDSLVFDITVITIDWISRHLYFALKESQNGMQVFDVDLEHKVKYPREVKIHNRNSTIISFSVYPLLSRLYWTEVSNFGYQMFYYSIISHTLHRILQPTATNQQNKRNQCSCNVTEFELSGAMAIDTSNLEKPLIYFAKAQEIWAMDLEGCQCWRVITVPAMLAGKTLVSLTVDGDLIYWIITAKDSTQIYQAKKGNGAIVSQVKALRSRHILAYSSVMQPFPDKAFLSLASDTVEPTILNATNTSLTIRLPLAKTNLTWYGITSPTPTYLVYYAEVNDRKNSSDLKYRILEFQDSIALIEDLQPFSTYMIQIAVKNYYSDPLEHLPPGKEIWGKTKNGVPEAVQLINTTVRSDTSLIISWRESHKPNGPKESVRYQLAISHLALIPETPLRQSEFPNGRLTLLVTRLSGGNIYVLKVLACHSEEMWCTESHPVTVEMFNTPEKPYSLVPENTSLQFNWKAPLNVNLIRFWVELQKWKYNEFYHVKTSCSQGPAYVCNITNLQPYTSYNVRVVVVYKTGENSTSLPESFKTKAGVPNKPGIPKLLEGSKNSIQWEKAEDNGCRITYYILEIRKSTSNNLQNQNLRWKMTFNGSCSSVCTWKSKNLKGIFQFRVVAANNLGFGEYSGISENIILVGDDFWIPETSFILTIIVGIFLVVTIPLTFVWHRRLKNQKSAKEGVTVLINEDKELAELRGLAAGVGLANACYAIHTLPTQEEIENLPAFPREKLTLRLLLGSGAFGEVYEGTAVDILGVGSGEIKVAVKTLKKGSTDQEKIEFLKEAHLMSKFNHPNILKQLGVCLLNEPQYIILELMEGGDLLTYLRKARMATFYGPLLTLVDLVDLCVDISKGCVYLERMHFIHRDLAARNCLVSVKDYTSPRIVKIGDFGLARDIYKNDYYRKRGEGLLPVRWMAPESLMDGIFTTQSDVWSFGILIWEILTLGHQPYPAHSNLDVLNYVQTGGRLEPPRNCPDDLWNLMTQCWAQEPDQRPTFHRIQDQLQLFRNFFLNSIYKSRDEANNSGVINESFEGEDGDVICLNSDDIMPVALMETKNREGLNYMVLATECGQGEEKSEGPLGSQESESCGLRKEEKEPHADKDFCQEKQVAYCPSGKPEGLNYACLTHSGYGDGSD

Consider `Fc1cccc(COc2ccc3ncc(-c4ccc(OC[C@@H]5CCCN5)cc4)n3n2)c1` [Example 12, 6-[(3-Fluorophenyl)methoxy]-3-[4-[[(2S)-pyrrolidin-2-yl]methoxy]phenyl]imidazo[1,2-b]pyridazine], for which the IC50 (in general, the concentration that inhibits the measured activity by half) in assay [1] was 100 to 600 nM; at ROS1 [2] it was 1 to 10 nM; on ROS1 [3], 20 to 100 nM.
The like results for `Fc1cccc(COc2ccc3ncc(-c4ccc(O[C@@H]5CCNC5)cc4)n3n2)c1` [Example 13, 6-[(3-Fluorophenyl)methoxy]-3-[4-[(3R)-pyrrolidin-3-yl]oxyphenyl]imidazo[1,2-b]pyridazine] were, in that order, 100 to 600 nM, 1 to 10 nM and 100 to 150 nM.
As to `NCCOc1ccc(-c2cnc3ccc(OCc4cccc(F)c4)nn23)cc1` [Example 14, 2-[4-[6-[(3-Fluorophenyl)methoxy]imidazo[1,2-b]pyridazin-3-yl]phenoxy]ethanamine], the values for the concentration for half-maximal inhibition (IC50) (in assay [1]; at ROS1 [2]; against ROS1 [3]) were 100 to 600 nM, 1 to 10 nM and 20 to 100 nM, respectively.
The like results for `C[C@@H](Oc1ccc2ncc(-c3ccc(OC4CCNCC4)cc3)n2n1)c1cccc(F)c1` [Example 15, 6-[(1R)-1-(3-Fluorophenyl)ethoxy]-3-[4-(4-piperidyloxy)phenyl]imidazo[1,2-b]pyridazine] were, in that order, 100 to 600 nM, 1 to 10 nM and 20 to 100 nM.
The like results for `C[C@@H](Oc1ccc2ncc(-c3ccc(OCC4CCNCC4)cc3)n2n1)c1cccc(F)c1` [Example 17, 6-[(1R)-1-(3-Fluorophenyl)ethoxy]-3-[4-(4-piperidylmethoxy)phenyl]imidazo[1,2-b]pyridazine] were, in that order, 100 to 600 nM, 1 to 10 nM and 20 to 100 nM.
The like results for `C[C@@H](Oc1ccc2ncc(-c3ccc(OC[C@@H]4CCN4)cc3)n2n1)c1cccc(F)c1` [Example 18, 3-[4-[[(2S)-Azetidin-2-yl]methoxy]phenyl]-6-[(1R)-1-(3-fluorophenyl)ethoxy]imidazo[1,2-b]pyridazine hydrochloride] were, in that order, 20 to 100 nM, less than 1 nM and 20 to 100 nM.
As for `C[C@@H](Nc1ccc2ncc(-c3ccc(OC[C@@H]4CCCN4)cc3)n2n1)c1ccccc1` [Example 19, N-[(1R)-1-Phenylethyl]-3-[4-[[(2S)-pyrrolidin-2-yl]methoxy]phenyl]imidazo[1,2-b]pyridazin-6-amine], the IC50 was 100 to 600 nM in assay [1], 1 to 10 nM on ROS1 [2] and less than 20 nM against ROS1 [3].
The like results for `C[C@@H](Nc1ccc2ncc(-c3ccc(SC[C@@H]4CCCN4)cc3)n2n1)c1ccccc1` [Example 20, N-[(1R)-1-Phenylethyl]-3-[4-[[(2S)-pyrrolidin-2-yl]methylsulfanyl]phenyl]imidazo[1,2-b]pyridazin-6-amine] were, in that order, 100 to 600 nM, 1 to 10 nM and 20 to 100 nM.
The like results for `C[C@@H](Nc1ccc2ncc(-c3ccc(O[C@@H]4CCNC4)cc3)n2n1)c1cccc(F)c1` [Example 22, N-[(1R)-1-(3-Fluorophenyl)ethyl]-3-[4-[(3R)-pyrrolidin-3-yl]oxyphenyl]imidazo[1,2-b]pyridazin-6-amine] were, in that order, 20 to 100 nM, less than 1 nM and less than 20 nM.
The matching figures for `C[C@@H](Nc1ccc2ncc(-c3ccc(OC[C@@H]4CCNC4)cc3)n2n1)c1cccc(F)c1` [Example 23, N-[(1R)-1-(3-Fluorophenyl)ethyl]-3-[4-[[(3R)-pyrrolidin-3-yl]methoxy]phenyl]imidazo[1,2-b]pyridazin-6-amine]: 100 to 600 nM, less than 1 nM and less than 20 nM.
As for `C[C@@H](Nc1ccc2ncc(-c3ccc(OC4CNC4)cc3)n2n1)c1cccc(F)c1` [Example 25, 3-[4-(Azetidin-3-yloxy)phenyl]-N-[(1R)-1-(3-fluorophenyl)ethyl]imidazo[1,2-b]pyridazin-6-amine], the IC50 was 20 to 100 nM in assay [1], 1 to 10 nM at ROS1 [2] and less than 20 nM against ROS1 [3].
The like results for `C[C@@H](Nc1ccc2ncc(-c3ccc(OCCN)cc3)n2n1)c1cccc(F)c1` [Example 26, 3-[4-(2-Aminoethoxy)phenyl]-N-[(1R)-1-(3-fluorophenyl)ethyl]imidazo[1,2-b]pyridazin-6-amine] were, in that order, less than 20 nM, less than 1 nM and less than 20 nM.
Take `C[C@@H](Nc1ccc2ncc(-c3ccc(OCC4CNC4)cc3)n2n1)c1cccc(F)c1` [Example 27, 3-[4-(Azetidin-3-ylmethoxy)phenyl]-N-[(1R)-1-(3-fluorophenyl)ethyl]imidazo[1,2-b]pyridazin-6-amine]: the IC50 in assay [1] is 100 to 600 nM; at ROS1 [2], 1 to 10 nM; on ROS1 [3] it was less than 20 nM.
The matching figures for `C[C@@H](Nc1ccc2ncc(-c3ccc(OCCCN)cc3)n2n1)c1cccc(F)c1` [Example 28, 3-[4-(3-Aminopropoxy)phenyl]-N-[(1R)-1-(3-fluorophenyl)ethyl]imidazo[1,2-b]pyridazin-6-amine]: 20 to 100 nM, less than 1 nM and less than 20 nM.
The matching figures for `CNCCCOc1ccc(-c2cnc3ccc(N[C@H](C)c4cccc(F)c4)nn23)cc1` [Example 31]: 20 to 100 nM, 1 to 10 nM and less than 20 nM.
Turning to `C[C@@H](Nc1ccc2ncc(-c3ccc(O[C@@H]4CCC[C@@H]4N)cc3)n2n1)c1cccc(F)c1` [Example 36, 3-[4-[(1R,2S)-2-Aminocyclopentoxy]phenyl]-N-[(1R)-1-(3-fluorophenyl)ethyl]imidazo[1,2-b]pyridazin-6-amine], the figures for the IC50 (in assay [1]; on ROS1 [2]; against ROS1 [3]) were 100 to 600 nM, less than 1 nM and less than 20 nM, respectively.
With `C[C@@H](Nc1ccc2ncc(-c3ccc(OCCNC4CC4)cc3)n2n1)c1cccc(F)c1` [Example 37, 3-[4-[2-(Cyclopropylamino)ethoxy]phenyl]-N-[(1R)-1-(3-fluorophenyl)ethyl]imidazo[1,2-b]pyridazin-6-amine], the IC50 in assay [1] was 20 to 100 nM; on ROS1 [2], less than 1 nM; against ROS1 [3] it was 20 to 100 nM.
Regarding `CNC(C)COc1ccc(-c2cnc3ccc(N[C@H](C)c4cccc(F)c4)nn23)cc1` (stereo partly drawn) [Example 38, N-[(1R)-1-(3-Fluorophenyl)ethyl]-3-[4-[2-(methylamino)propoxy]phenyl]imidazo[1,2-b]pyridazin-6-amine], the values for the IC50 (in assay [1]; at ROS1 [2]; at ROS1 [3]) were less than 20 nM, less than 1 nM and less than 20 nM, respectively.
Turning to `C[C@@H](Nc1ccc2ncc(-c3ccc(OCC4(N)CC4)cc3)n2n1)c1cccc(F)c1` [Example 39, 3-[4-[(1-Aminocyclopropyl)methoxy]phenyl]-N-[(1R)-1-(3-fluorophenyl)ethyl]imidazo[1,2-b]pyridazin-6-amine], the IC50 in assay [1] was 20 to 100 nM; on ROS1 [2] it was less than 1 nM; against ROS1 [3], less than 20 nM.
The like results for `C[C@@H](Nc1ccc2ncc(-c3ccc(O[C@H]4CCC[C@H]4N)cc3)n2n1)c1cccc(F)c1` [Example 40, 3-[4-[(1S,2R)-2-Aminocyclopentoxy]phenyl]-N-[(1R)-1-(3-fluorophenyl)ethyl]imidazo[1,2-b]pyridazin-6-amine] were, in that order, less than 20 nM, less than 1 nM and less than 20 nM.
For `C[C@@H](Nc1ccc2ncc(-c3ccc(OCCNCCO)cc3)n2n1)c1cccc(F)c1` [Example 42, 2-[2-[4-[6-[[(1R)-1-(3-Fluorophenyl)ethyl]amino]imidazo[1,2-b]pyridazin-3-yl]phenoxy]ethylamino]ethanol], the IC50 in assay [1] is less than 20 nM; at ROS1 [2], less than 1 nM; at ROS1 [3], less than 20 nM.
Take `C[C@@H](Nc1ccc2ncc(-c3ccc(OC[C@@H]4CCN4)cc3F)n2n1)c1cccc(F)c1` [Example 43, 3-[4-[[(2S)-Azetidin-2-yl]methoxy]-2-fluoro-phenyl]-N-[(1R)-1-(3-fluorophenyl)ethyl]imidazo[1,2-b]pyridazin-6-amine]: the values for the IC50 (in assay [1]; at ROS1 [2]; against ROS1 [3]) were less than 20 nM, less than 1 nM and less than 20 nM, respectively.
Consider `C[C@@H](Nc1ccc2ncc(-c3ccc(OC[C@@H]4CCN4)c(F)c3)n2n1)c1cccc(F)c1` [Example 44, 3-[4-[[(2S)-Azetidin-2-yl]methoxy]-3-fluoro-phenyl]-N-[(1R)-1-(3-fluorophenyl)ethyl]imidazo[1,2-b]pyridazin-6-amine], for which the IC50 in assay [1] was less than 20 nM; on ROS1 [2] it was less than 1 nM; against ROS1 [3] it was less than 20 nM.
